Reference: article PMC11406361, “Several orphan solute carriers functionally identified as organic cation transporters: Substrates specificity compared with known cation transporters” (The Journal of Biological Chemistry, 2024)

Legend:
[1] = molecular target: T1, SLC22A15 (Homo sapiens, UniProt Q8IZD6); test: Uptake ratio screen, SLC22A15-overexpressing HEK293 over empty vector cells; type: cell-based; settings: 2.5 μM (nicotine 10 μM), 2 min
T1 construct: by amplifying the entire gene-of-interest within the HEK293 genome via a long-range PCR
Procedure: (§1) Typically discussed substrates of the proton organic-cation antiporter ([14]) are highlighted in dark green in Figure 1.
(§2) In preparation for transport experiments, 24-well plates were pre-coated with poly-D-lysine (Sigma-Aldrich) and 300,000 cells were plated per well and incubated for 48 h. Firstly, the 24-well plate was placed on a heating plate at 37 °C, and the cells were washed with 37 °C HBSS^+ buffer (Hank’s balanced salt solution supplemented with 10 mM Hepes and adjusted to pH 7.4; Thermo Fisher Scientific). The substance-of-interest, which was diluted in 37 °C HBSS^+ to a desired concentration, was added to the cells for exactly 2 min. […] The uptake was stopped with ice-cold HBSS^+, and the 24-well plate was removed from the heating plate. The cells were washed twice with the cold HBSS^+ before they were lysed for 15 min with 80% (v/v) acetonitrile containing the respective internal standard for mass spectrometry. For variations in seeded cell numbers between the cell lines, several wells were lysed in RIPA buffer and used for total protein quantification using a bicinchoninic assay ([74]) and bovine serum albumin as calibration.
The intracellular drug concentrations after transport experiments were analyzed by high-performance liquid chromatography coupled to tandem mass spectrometry analysis. The HPLC consisted of a Shimadzu Nexera HPLC System with a SIL-30AC autosampler, a LC-30AD pump, a CTO-20AC column oven, and a CBM-20A controller (Shimadzu). The reverse-phase chromatography of compounds was accomplished with a Brownlee SPP RP-Amide column with 4.6 × 100 mm inner dimensions, a particle size of 2.7 μm, and a preceding Phenomenex C-18 guard column. The mobile phase was composed of an organic additive with acetonitrile:methanol 6:1 (v/v) in total concentrations between 3% and 50% (v/v) and 0.1% (v/v) formic acid in the aqueous component of the eluent. During separation, the column oven was held at 40 °C and the mobile phase was maintained at a flow rate of 300 or 400 μl/min. After separation, the detection of substances was performed with an API 4000 tandem mass spectrometer (AB SCIEX, https://sciex.com/support/software-support/software-downloads), followed by quantification of results with the Analyst software (AB SCIEX, version 1.6.2). The composition of chromatographic conditions, as well as detailed mass spectrometric detection parameters, are listed in Table S5.
(§3) Transport-mediated net uptake was determined as fold-increase of transporter-overexpressing cells over empty vector–transfected control cells.

[2] = molecular target: T2, SLC35F2 (Homo sapiens, UniProt Q8IXU6)
T2 sequence (Q8IXU6 1-374): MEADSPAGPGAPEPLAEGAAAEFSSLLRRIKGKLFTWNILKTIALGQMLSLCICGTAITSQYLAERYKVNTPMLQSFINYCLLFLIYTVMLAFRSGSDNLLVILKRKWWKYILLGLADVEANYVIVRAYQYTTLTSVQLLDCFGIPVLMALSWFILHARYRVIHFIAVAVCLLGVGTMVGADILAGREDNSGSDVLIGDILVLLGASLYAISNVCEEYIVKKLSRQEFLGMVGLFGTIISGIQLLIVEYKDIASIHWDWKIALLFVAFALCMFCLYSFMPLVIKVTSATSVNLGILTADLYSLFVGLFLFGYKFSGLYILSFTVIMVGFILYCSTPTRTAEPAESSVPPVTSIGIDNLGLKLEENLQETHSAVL

[3] = molecular target: T3, SLC35G3 (Homo sapiens, UniProt Q8N808)
[4] = molecular target: SLC38A10 (Homo sapiens, UniProt Q9HBR0)
[5] = molecular target: T3, SLC35G3; test: Uptake ratio screen, SLC35G3-overexpressing HEK293 over empty vector cells; type: cell-based; parameters: by amplifying the entire gene-of-interest within the HEK293 genome via a long-range PCR; settings: 2.5 μM substrate, 2 min, HEK293
[6] = molecular target: T4, SLC35E2A (Homo sapiens, UniProt P0CK97)
[7] = molecular target: T4, SLC35E2A; test: Uptake ratio screen, SLC35E2A-overexpressing HEK293 over empty vector cells; type: cell-based; parameters: by amplifying the entire gene-of-interest within the HEK293 genome via a long-range PCR; settings: 2.5 μM, 2 min
Procedure: as §1, §2
The intracellular drug concentrations after transport experiments were analyzed by high-performance liquid chromatography coupled to tandem mass spectrometry analysis. The HPLC consisted of a Shimadzu Nexera HPLC System with a SIL-30AC autosampler, a LC-30AD pump, a CTO-20AC column oven, and a CBM-20A controller (Shimadzu). The reverse-phase chromatography of compounds was accomplished with a Brownlee SPP RP-Amide column with 4.6 × 100 mm inner dimensions, a particle size of 2.7 μm, and a preceding Phenomenex C-18 guard column. […] After separation, the detection of substances was performed with an API 4000 tandem mass spectrometer (AB SCIEX, https://sciex.com/support/software-support/software-downloads), followed by quantification of results with the Analyst software (AB SCIEX, version 1.6.2). […]
as §3

T3 sequence (Q8N808 whole entry): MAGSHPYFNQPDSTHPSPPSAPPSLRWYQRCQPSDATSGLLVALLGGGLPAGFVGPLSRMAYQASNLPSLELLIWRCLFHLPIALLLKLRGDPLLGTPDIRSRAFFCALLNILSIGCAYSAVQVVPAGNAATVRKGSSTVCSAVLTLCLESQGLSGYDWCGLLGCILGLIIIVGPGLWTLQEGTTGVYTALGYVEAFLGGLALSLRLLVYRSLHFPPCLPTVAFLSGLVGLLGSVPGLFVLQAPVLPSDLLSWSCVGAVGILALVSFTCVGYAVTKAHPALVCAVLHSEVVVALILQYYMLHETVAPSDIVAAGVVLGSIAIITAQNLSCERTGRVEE
T1 sequence (Q8IZD6 whole entry): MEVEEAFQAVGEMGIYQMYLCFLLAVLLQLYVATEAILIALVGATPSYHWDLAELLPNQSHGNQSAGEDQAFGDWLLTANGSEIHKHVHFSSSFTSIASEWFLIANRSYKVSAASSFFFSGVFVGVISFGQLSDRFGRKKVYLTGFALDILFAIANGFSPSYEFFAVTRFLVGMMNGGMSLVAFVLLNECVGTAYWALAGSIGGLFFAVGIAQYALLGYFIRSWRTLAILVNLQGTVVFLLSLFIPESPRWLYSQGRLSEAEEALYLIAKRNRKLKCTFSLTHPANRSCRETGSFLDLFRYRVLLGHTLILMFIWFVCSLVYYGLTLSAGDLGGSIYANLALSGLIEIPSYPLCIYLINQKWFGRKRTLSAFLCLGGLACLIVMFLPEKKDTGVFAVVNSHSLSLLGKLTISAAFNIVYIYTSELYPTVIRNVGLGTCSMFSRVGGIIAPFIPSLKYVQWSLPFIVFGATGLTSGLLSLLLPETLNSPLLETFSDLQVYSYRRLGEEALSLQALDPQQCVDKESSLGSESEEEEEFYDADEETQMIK
T4 sequence (P0CK97 whole entry): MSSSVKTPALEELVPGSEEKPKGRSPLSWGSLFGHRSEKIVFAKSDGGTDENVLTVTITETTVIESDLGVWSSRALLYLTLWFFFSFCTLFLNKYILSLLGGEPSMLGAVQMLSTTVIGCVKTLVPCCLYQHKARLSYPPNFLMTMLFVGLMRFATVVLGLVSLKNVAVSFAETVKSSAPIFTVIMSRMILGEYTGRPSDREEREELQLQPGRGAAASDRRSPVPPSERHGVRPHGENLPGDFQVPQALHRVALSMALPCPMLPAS
Sequence of SLC38A10 (Q9HBR0 whole entry): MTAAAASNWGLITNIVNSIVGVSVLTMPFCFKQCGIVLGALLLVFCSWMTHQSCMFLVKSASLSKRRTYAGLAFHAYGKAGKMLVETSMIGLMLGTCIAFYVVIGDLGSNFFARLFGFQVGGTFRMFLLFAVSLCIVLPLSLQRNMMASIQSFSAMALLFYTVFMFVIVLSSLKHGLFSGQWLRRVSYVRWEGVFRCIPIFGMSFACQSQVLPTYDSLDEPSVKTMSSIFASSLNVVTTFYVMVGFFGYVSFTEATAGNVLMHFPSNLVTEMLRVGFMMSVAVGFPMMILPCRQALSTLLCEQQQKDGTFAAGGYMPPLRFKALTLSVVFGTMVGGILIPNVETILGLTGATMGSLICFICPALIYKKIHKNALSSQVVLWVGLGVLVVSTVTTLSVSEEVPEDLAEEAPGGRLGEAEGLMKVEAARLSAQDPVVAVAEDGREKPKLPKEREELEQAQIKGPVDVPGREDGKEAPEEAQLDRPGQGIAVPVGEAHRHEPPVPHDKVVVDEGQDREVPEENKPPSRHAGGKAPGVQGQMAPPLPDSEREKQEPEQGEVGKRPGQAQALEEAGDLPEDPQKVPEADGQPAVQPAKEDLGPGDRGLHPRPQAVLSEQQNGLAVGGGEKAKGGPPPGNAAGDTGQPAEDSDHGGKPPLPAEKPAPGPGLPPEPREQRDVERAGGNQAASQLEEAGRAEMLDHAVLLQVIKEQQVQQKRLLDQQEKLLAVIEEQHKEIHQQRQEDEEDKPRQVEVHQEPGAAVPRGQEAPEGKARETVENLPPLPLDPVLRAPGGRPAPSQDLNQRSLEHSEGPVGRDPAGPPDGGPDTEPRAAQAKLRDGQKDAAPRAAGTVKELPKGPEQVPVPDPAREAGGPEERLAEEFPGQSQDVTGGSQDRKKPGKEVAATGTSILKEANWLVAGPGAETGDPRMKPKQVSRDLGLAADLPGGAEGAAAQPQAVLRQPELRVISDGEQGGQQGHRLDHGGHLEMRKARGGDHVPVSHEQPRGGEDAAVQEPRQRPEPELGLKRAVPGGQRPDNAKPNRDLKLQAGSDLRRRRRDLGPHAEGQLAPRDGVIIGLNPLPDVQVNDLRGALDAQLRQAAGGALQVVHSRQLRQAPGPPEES

Clint (±SEM) [6] | Uptake by SLC35E2A (in words) [7] | Structure (SMILES) | Uptake by SLC22A15 (in words) [1] | Vmax (±SEM) ([2]; SLC35F2, HEK293, net uptake over empty vector cells) | Clint (±SEM) ([2]; human) | Km ([2]; read-out: KM (±SEM), SLC35F2, HEK293, net uptake over empty vector cells) [µM] | Clint (±SEM) [3] | Clint (±SEM) [4] | Uptake data for SLC35G3, mean value (fold-increase over empty vector control) [5]
 |  | Clc1cccc(Cl)c1N=C1NCCN1 [Clonidine] | significantly increased the uptake | 304 (±57.7) pmol × mg protein^-1 × min^-1 | 2.06 (±1.62) μl × mg protein^-1 × min^-1 | 147 | 4.85 (±3.17) μl × mg protein^-1 × min^-1 | 2.64 (±3.0) μl × mg protein^-1 × min^-1 | 1.54
1.79 (±1.06) μl × mg protein^-1 × min^-1 | relatively high activity | c1cnc2cc3c(cc2n1)[C@@H]1CNC[C@H]3C1 [Varenicline] | significantly increased the uptake |  |  |  |  |  | 1.60
